Laboratory results published in the NIST ThermoML archive (doi:10.1016/j.jct.2013.09.032).
Numbers after ± are expanded uncertainties. One block for each compound: values may come before it.

Key:
[1] = for mass density / viscosity: 101.33 kPa, Liquid; for mass density: Vibrating tube method; for viscosity: Falling or rolling sphere viscometry
[2] = refractive index (Na D-line) (dimensionless); details: 101.33 kPa, Liquid, Standard Abbe refractometry

Structure (SMILES): CCCC[n+]1cccc(C#N)c1.O=S(=O)([N-]S(=O)(=O)C(F)(F)F)C(F)(F)F [1-butyl-3-cyanopyridinium bis(trifluoromethylsulfonyl)imide]
- mass density ([1]; 298.15 K): 1479.79 ± 2.1 kg/m3

Structure (SMILES): CCCC[n+]1ccc(C#N)cc1.O=S(=O)([N-]S(=O)(=O)C(F)(F)F)C(F)(F)F [1-butyl-4-cyanopyridinium bis(trifluoromethylsulfonyl)imide]
- mass density ([1]; 278.15 K): 1492.99 ± 2.1 kg/m3
- mass density ([1]; 288.15 K): 1483.58 ± 2.1 kg/m3
- mass density ([1]; 298.15 K): 1474.23 ± 2.1 kg/m3
- viscosity ([1]; 308.15 K): 250.45 ± 14 mPa·s
- mass density ([1]; 308.15 K): 1465.05 ± 2 kg/m3
- viscosity ([1]; 318.15 K): 138.28 ± 5.4 mPa·s
- mass density ([1]; 318.15 K): 1455.88 ± 2 kg/m3
- viscosity ([1]; 328.15 K): 83.59 ± 2.3 mPa·s
- mass density ([1]; 328.15 K): 1446.76 ± 2 kg/m3
- viscosity ([1]; 338.15 K): 54.47 ± 1.2 mPa·s
- mass density ([1]; 338.15 K): 1437.73 ± 2 kg/m3
- viscosity ([1]; 348.15 K): 37.59 ± 0.89 mPa·s
- mass density ([1]; 348.15 K): 1428.78 ± 2 kg/m3
- viscosity ([1]; 358.15 K): 27.24 ± 0.65 mPa·s
- mass density ([1]; 358.15 K): 1419.9 ± 1.9 kg/m3
- Glass transition temperature ([1]; Glass, DTA): -54 ± 3.8 °C

Structure (SMILES): CCCCCC[n+]1ccc(C#N)cc1.O=S(=O)([N-]S(=O)(=O)C(F)(F)F)C(F)(F)F [1-hexyl-4-cyanopyridinium bis(trifluoromethylsulfonyl)imide]
- mass density ([1]; 298.15 K): 1407 ± 1.9 kg/m3

Structure (SMILES): CC(C)=O [acetone]
- mass density ([1]; 298.15 K): 785.23 ± 1 kg/m3
- refractive index ([2]; 298.15 K): 1.356 ± 0.0007

Structure (SMILES): c1ccc2sccc2c1 [benzo[b]thiophene]
- mass density ([1]; 308.15 K): 1150.55 ± 1.1 kg/m3
- mass density ([1]; 310.15 K): 1149.31 ± 1.1 kg/m3
- mass density ([1]; 313.15 K): 1146.05 ± 1.1 kg/m3
- mass density ([1]; 318.15 K): 1141.56 ± 1.1 kg/m3
- mass density ([1]; 323.15 K): 1137.07 ± 1.1 kg/m3
- mass density ([1]; 328.15 K): 1132.58 ± 1.1 kg/m3
- mass density ([1]; 333.15 K): 1128.08 ± 1.1 kg/m3
- mass density ([1]; 338.15 K): 1123.59 ± 1 kg/m3
- mass density ([1]; 343.15 K): 1119.1 ± 1 kg/m3
- mass density ([1]; 348.15 K): 1114.61 ± 1 kg/m3
- mass density ([1]; 353.15 K): 1110.11 ± 1 kg/m3
- mass density ([1]; 358.15 K): 1105.61 ± 1 kg/m3
- mass density ([1]; 363.15 K): 1101.11 ± 1 kg/m3
- refractive index ([2]; 310.15 K): 1.638 ± 0.0007

- mass density ([1]; 298.15 K): 679.48 ± 1 kg/m3
- refractive index ([2]; 298.15 K): 1.38519 ± 0.00068
Structure (SMILES): CCCCCCC [heptane]

- mass density ([1]; 298.15 K): 799.52 ± 1 kg/m3
- refractive index ([2]; 298.15 K): 1.38375 ± 0.00068
Structure (SMILES): CCCO [propan-1-ol]

- mass density ([1]; 298.15 K): 1058.64 ± 1 kg/m3
- refractive index ([2]; 298.15 K): 1.52527 ± 0.0007
Structure (SMILES): c1ccsc1 [thiophene]
